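Where inhibition never reached the appropriate level, the endpoint shown equals the highest concentration tested. Otherwise, values were interpolated linearly from a five-concentration, 48-hour dose response in 96-well plates. TGI denotes the concentration required for complete inhibition of growth.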
Tests used:
Assay in all cases: NCI tumour cell line growth inhibition, 48 h
DU-145 prostate = test system: DU-145 prostate
BT-549 breast = test system: BT-549 breast
MDA-N = test system: MDA-N
MDA-MB-435 = test system: MDA-MB-435
MDA-MB-231 breast = test system: MDA-MB-231 breast
PC-3 prostate = test system: PC-3 prostate
T-47D breast = test system: T-47D breast
RXF-631 renal = test system: RXF-631 renal
SN12K1 renal = test system: SN12K1 renal
P388 leukemia = test system: P388 leukemia
P388/ADR leukemia = test system: P388/ADR leukemia

SMILES	TGI (DU-145 prostate) [µM]	TGI (BT-549 breast) [µM]	TGI (MDA-N) [µM]	TGI (MDA-MB-435) [µM]	TGI (MDA-MB-231 breast) [µM]	TGI (PC-3 prostate) [µM]	TGI (T-47D breast) [µM]	TGI (RXF-631 renal) [µM]	further results
O=C(NCCN(CCNC(=O)c1cccc(=O)n1O)CCNC(=O)c1cccc(=O)n1O)c1cccc(=O)n1O	> 100	> 100	> 100	> 100	> 100	> 100	> 100	–	–
N#CCCN(CCC#N)c1ccc(/C=C(/NC(=O)Nc2ccccc2Cl)NC(=O)c2cc([N+](=O)[O-])ccc2Cl)cc1	–	–	–	–	–	–	–	> 100	–
COc1ccc(N[C@@H]2c3cc4c(cc3C(c3cc(OC)c(O)c(OC)c3)[C@H]3C(=O)OCC32)OCO4)cc1OC (some centres undefined)	–	–	–	–	–	–	–	–	TGI (SN12K1 renal): > 34.8 µM; TGI (P388 leukemia): 10.9 µM; TGI (P388/ADR leukemia): 10.3 µM
S=C1Cc2c(-c3ccccc3)cc(-c3ccc(Cl)cc3)nc2-c2ccccc2N1	53.1	37.9	16.2	> 38.8	5.22	30.9	> 57.3	–	–
O=S(=O)(CF)OCCCCOS(=O)(=O)CF	–	–	–	–	–	–	–	> 100	–
